Numbered stars: 1 amine (or outer) side, 2 acyl side, 3 side chain; on linkers, the order of the positions; unused ones are H or OH. Bridge positions count the residues as written; N and C are the ends. Square brackets hold non-standard residues; d marks the D form. Peptide text beside a SMILES is read from it. Trp(7-Me) = Cc1cccc2c(C[C@H](N)C(=O)O)c[nH]c12; Abu(4-yl) = O=C([C@H](CC[*:3])N[*:1])[*:2]; 2Nal = N[C@@H](Cc1ccc2ccccc2c1)C(=O)O; AEF = NCCOc1ccc(C[C@H](N)C(=O)O)cc1; Cit = NC(=O)NCCC[C@H](N)C(=O)O; Pen = CC(C)(S)[C@H](N)C(=O)O; αMeK = C[C@](N)(CCCCN)C(=O)O; Aib = CC(C)(N)C(=O)O; βAla = NCCC(=O)O
T1: IL-23R (Homo sapiens, UniProt Q5VWK5)
T1 sequence (Q5VWK5 24-629): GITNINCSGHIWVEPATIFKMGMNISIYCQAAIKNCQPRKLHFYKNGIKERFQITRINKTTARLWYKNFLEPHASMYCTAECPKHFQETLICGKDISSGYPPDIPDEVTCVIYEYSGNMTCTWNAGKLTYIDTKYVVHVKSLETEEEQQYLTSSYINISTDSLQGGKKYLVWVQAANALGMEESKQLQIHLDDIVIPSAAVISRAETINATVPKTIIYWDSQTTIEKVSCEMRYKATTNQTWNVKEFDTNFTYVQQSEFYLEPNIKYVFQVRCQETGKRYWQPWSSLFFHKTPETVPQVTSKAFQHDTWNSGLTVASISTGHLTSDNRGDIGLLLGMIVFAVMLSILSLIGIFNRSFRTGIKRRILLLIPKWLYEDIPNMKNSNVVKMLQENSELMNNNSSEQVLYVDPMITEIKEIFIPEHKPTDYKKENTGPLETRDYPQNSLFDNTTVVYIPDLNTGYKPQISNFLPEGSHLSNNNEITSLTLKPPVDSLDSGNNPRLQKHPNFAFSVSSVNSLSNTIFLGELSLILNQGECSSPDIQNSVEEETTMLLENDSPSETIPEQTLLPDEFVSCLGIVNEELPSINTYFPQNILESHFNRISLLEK

T2: IL-23R (human, UniProt Q5VWK5 24-629)
T2 sequence (looked up): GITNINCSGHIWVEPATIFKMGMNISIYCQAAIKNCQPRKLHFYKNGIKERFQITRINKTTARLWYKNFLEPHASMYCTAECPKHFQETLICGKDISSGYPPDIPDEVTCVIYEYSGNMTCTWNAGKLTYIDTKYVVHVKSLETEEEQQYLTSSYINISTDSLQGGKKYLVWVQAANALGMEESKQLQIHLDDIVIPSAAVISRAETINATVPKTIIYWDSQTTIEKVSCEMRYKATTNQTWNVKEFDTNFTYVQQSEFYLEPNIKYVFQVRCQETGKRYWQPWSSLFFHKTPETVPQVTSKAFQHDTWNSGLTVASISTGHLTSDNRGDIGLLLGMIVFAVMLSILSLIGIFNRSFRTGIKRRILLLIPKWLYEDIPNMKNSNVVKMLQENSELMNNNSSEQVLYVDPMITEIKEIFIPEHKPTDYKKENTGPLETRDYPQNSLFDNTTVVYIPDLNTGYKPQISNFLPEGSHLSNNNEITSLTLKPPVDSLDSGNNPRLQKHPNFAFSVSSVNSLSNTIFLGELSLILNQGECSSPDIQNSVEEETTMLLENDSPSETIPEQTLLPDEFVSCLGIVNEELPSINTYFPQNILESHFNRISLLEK

B1: SEQ ID NO: 27 (peptide)
peptide: RXQTXQCXXXENN
modifications: Ac-[(D)Arg]-[Abu]-QT-[W(7-Me)]-QC-[Phe[4-(2-aminoethoxy)]-[2-Nal]-[THP]-ENN-NH2; Abu-Cys thioether
B2: SEQ ID NO: 29 (peptide)
peptide: RXQTXQCXXXKNN
modifications: Ac-[(D)Arg]-[Abu]-QT-[W(7-Me)]-QC-[Phe[4-(2-aminoethoxy)]-[2-Nal]-[THP]-[Lys(Ac)]-NN-NH2; Abu-Cys thioether
B3: SEQ ID NO: 28 (peptide)
peptide: XQTXQCXXXENN
modifications: Ac-[Abu]-QT-[W(7-Me)]-QC-[Phe[4-(2-aminoethoxy)]-[2-Nal]-[THP]-ENN-NH2; Abu-Cys thioether

Experiments:
in vitro = in vitro ADME; design: half-life: dose or concentration left out as unconfirmed; conditions: pH 6.8, 37° C., § matrix is 100 fold dilution of standard SIF concentration; for half-life: simulated intestinal fluid (SIF) with pancreatin, read-out: SIF t½ (converted); for SIF t½: simulated intestinal fluid, pancreatin
[1] = 20% human fecal homogenate, 37° C., 20 μM
Experimental: Fecal homogenate (20%) was prepared by adding 4 mL of growth medium (1 liter contains 2 g peptone water powder, 2 g yeast extract, 0.1 g NaCl, 0.04 g KH2PO4, 0.01 g CaCl2·6H2O, 0.01 g MgSO4·7H2O, 2 mL Tween 80, 0.5 g bile salts, 0.5 g L-cysteine HCl, 2 g NaHCO3, and 10 μL Vitamin K, pH adjusted to 6.8, and sterilized by filtration through a 0.22 μm filter) to every gram of feces (pooled freshly collected human or cynomolgus monkey feces). The suspension was vortexed to break up large clumps, and homogenized using a bead mill homogenizer. Centrifuged the homogenate at 2800×g for 15 min. The supernatant is taken out and used for incubations. DMSO stocks (10 mM) were first prepared for the test compounds. Incubations were performed in an anaerobic chamber conditioned at 37° C. Aliquots of the DMSO solutions were dosed into 1.0 mL aliquots of 20% fecal homogenate, which are pre-warmed to 37° C. The final test compound concentration was 20 μM. At each timepoint (0, 20 min, 1, 3, 6, or 24 hours), 100 μL aliquot of each incubation mixture is taken out and added to separate tubes containing 300 μL of 50% acetonitrile/50% methanol and an internal standard to terminate the reaction. Samples were taken out of the anaerobic chamber and stored at 4° C. until the end of the experiment. After the final timepoint is sampled, the tubes were mixed and then centrifuged at 3,000 rpm for 10 minutes. Aliquots of the supernatant were removed, diluted 1:1 into distilled water containing 0.1% formic acid, and analyzed by LC/MS/MS. Percent remaining at each timepoint was calculated based on the peak area response ratio of test to compound to internal standard. Time 0 was set to 100%, and all later timepoints were calculated relative to time 0. Half-lives were calculated by fitting to a first-order exponential decay equation using Graphpad or Excel.

[2] = 20% cynomolgus monkey fecal homogenate, 37° C., 20 μM
IL-23R [3] = biological target: T1, IL-23R; assay: DB cells IL23R pSTAT3 cell assay (pStat3 HTRF); assay type: cell-based; conditions: Table E3; DB cells, IL-23 0.5 nM, 30 minutes at 37° C.; read-out: pStat3 HTRF (IC50)
In short: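 DB cells (5×10E5/well, RPMI-1640 + 10% FBS) stimulated with 0.5 nM final IL-23 plus serially diluted test peptides for 30 min at 37 °C, 5% CO2. Phospho-STAT3 (Tyr705) in lysates measured by HTRF using a two-plate protocol.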

[4] = SD rat plasma, 37° C., 20 μM
IL-23R [5] = biological target: T2, IL-23R; assay: cell-based or functional assay

Row | Molecule | half-life (in vitro) [h] | t½: Human Feces anaerobic [1] [h] | t½: Monkey Feces anaerobic [2] [h] | IC50 (IL-23R [3]) [nM] | SIF t½ (in vitro) [h] | t½: Rat Plasma EDTA [4] [h] | pStat3 HTRF (nM) IC50 (IL-23R [5]) [nM]
1 | CC(=O)NCCCC[C@H](NC(=O)[C@](C)(CCCCN)NC(=O)[C@H](Cc1ccc2ccccc2c1)NC(=O)[C@H](Cc1ccc(OCCN)cc1)NC(=O)[C@H]1NC(=O)[C@H](CCCCNC(=O)C(C)(C)N)NC(=O)[C@H](Cc2c[nH]c3c(C)cccc23)NC(=O)[C@H]([C@@H](C)O)NC(=O)[C@H](CC(N)=O)NC(=O)[C@@H](NC(C)=O)C(C)(C)SSC1(C)C)C(=O)N[C@@H](CC(N)=O)C(=O)N[C@H](CC(C)C)C(N)=O [compound 322] | 1 | >24 | >24 |  |  |  | 
2 | CC(=O)N[C@@H]1C(=O)N[C@@H](CC(N)=O)C(=O)N[C@@H]([C@@H](C)O)C(=O)N[C@@H](Cc2c[nH]c3c(C)cccc23)C(=O)N[C@@H](CCCNC(N)=O)C(=O)N[C@H](C(=O)N[C@@H](Cc2ccc(OCCN)cc2)C(=O)N[C@@H](Cc2ccc3ccccc3c2)C(=O)N[C@@](C)(CCCCN)C(=O)N[C@@H](CCCNC(N)=O)C(=O)NCCC(=O)NCCC(N)=O)C(C)(C)SSC1(C)C [compound 281] (Ac-[Pen]NT[Trp(7-Me)][Cit][Pen][AEF][2Nal][αMeK][Cit][βAla][βAla]-NH2; disulfide 1-6) |  | >24 | >24 | 10 to 100 | 14 | >24 | 
3 | CC(=O)NCCCC[C@@H]1NC(=O)[C@H](Cc2c[nH]c3c(C)cccc23)NC(=O)[C@H]([C@@H](C)O)NC(=O)[C@H](CC(N)=O)NC(=O)[C@@H](NC(C)=O)C(C)(C)SSC(C)(C)[C@@H](C(=O)N[C@@H](Cc2ccc(OCCN)cc2)C(=O)N[C@@H](Cc2ccc3ccccc3c2)C(=O)N[C@@](C)(CCCCN)C(=O)N[C@@H](CCCCNC(C)=O)C(=O)N[C@@H](CC(N)=O)C(=O)N[C@H](Cc2ccccc2)C(N)=O)NC1=O [compound 258] |  | >24 | >24 |  | 14 | >24 | 
4 | CC(=O)NCCCC[C@H](NC(=O)[C@](C)(CCCCN)NC(=O)[C@H](Cc1ccc2ccccc2c1)NC(=O)[C@H](Cc1ccc(OCCN)cc1)NC(=O)[C@H]1NC(=O)[C@H](CCC(N)=O)NC(=O)[C@H](Cc2c[nH]c3c(C)cccc23)NC(=O)[C@H]([C@@H](C)O)NC(=O)C(C)(C)NC(=O)[C@@H](NC(C)=O)C(C)(C)SSC1(C)C)C(=O)N[C@@H](CC(N)=O)C(=O)NCCC(N)=O [compound 240] (Ac-[Pen][Aib]T[Trp(7-Me)]Q[Pen][AEF][2Nal][αMeK]K(Ac)N[βAla]-NH2; disulfide 1-6) |  | 4 | 3 | 10 to 100 |  | 8 | 
5 | CC(=O)NCCCC[C@H](NC(=O)[C@](C)(CC(C)C)NC(=O)[C@H](Cc1ccc2ccccc2c1)NC(=O)[C@H](Cc1ccc(OCCN)cc1)NC(=O)[C@H]1NC(=O)[C@H](CCC(N)=O)NC(=O)[C@H](Cc2c[nH]c3c(C)cccc23)NC(=O)[C@H]([C@@H](C)O)NC(=O)[C@H](CC(N)=O)NC(=O)[C@@H](NC(C)=O)C(C)(C)SSC1(C)C)C(=O)N[C@@H](C(=O)NCCC(N)=O)[C@H](C)O [compound 218] |  |  |  |  |  | 1 | 
6 | CC(=O)NCCCC[C@@H]1NC(=O)[C@H](Cc2c[nH]c3c(C)cccc23)NC(=O)[C@H]([C@@H](C)O)NC(=O)[C@H](CCC(N)=O)NC(=O)[C@@H](NC(=O)[C@@H](CCCNC(=N)N)NC(C)=O)CCSC[C@@H](C(=O)N[C@@H](Cc2ccc(OCCN)cc2)C(=O)N[C@@H](Cc2ccc3ccccc3c2)C(=O)N[C@@](C)(CCCCN)C(=O)N[C@@H](CCCCNC(C)=O)C(=O)N[C@@H](CC(N)=O)C(=O)N[C@H](CC(C)C)C(N)=O)NC1=O [compound 325] (Ac-[dR][Abu(4-yl)]QT[Trp(7-Me)]K(Ac)C[AEF][2Nal][αMeK]K(Ac)N[dL]-NH2; thioether 2-7) | 2 | >24 | 22 |  |  |  | 
7 | B1 |  |  |  |  |  |  | < 1
8 | B2 |  |  |  |  |  |  | < 1
9 | B3 |  |  |  |  |  |  | < 1

From patent US20260116921A1, “PEPTIDE INHIBITORS OF INTERLEUKIN-23 RECEPTOR AND THEIR USE TO TREAT INFLAMMATORY DISEASES” (priority 2018, published 2026)
